Experimental data as given in US10125123B2, “Small molecule IRE1-α inhibitors” (Cornell University, priority 2016, dated 2018).

Biological target: T1, IRE1α (Homo sapiens, UniProt O75460)
T1 construct: purchased SignalChem
Assay: In vitro FRET assay (XBP1 RNA probe cleavage by IRE1α)
Conditions: biochemical FRET assay, 2 nM IRE1α
Method: In vitro FRET assay was performed to evaluate the ability of select compounds to inhibit IRE1, the results of which are summarized in the following table.
To perform the in vitro FRET assay, 1× complete assay buffer (CAB; […], 50 mM sodium citrate pH 7.15, 1 mM magnesium acetate, 0.02% Tween 20) was used to dilute SignalChem IRE1α in protein to a final concentration of 2 nM. Selected compounds were serially diluted with DMSO in a non-binding black 384-well plate for a total of 15 μl in each well. 2 μl of the serially diluted compound or DMSO control were then added to new wells containing 98 μl of 1×CAB, for a total volume of 100 μl, 10 μl of which were then transferred to wells of a new plate. 5 μl of the diluted IRE1α was then added to each well. 5 μl of a […] XBP1 RNA probe was then added to each well. Fluorescence was then read over 30 minutes in kinetic mode (485/515 nm). Two RNA probes were used, XBP1 wildtype (CAUGUCCGCAGCACAUG; SEQ ID NO: 1) which is able to be spliced by active IRE1α or XBP1 mutant (CAUGUCCCCAGCACAUG; SEQ ID NO: 2) which is unable to be spliced. Each probe contained a 5′ 6-FAM modification and a 3′ IOWA Black FQ modification. […]

T1 sequence (O75460 19-977): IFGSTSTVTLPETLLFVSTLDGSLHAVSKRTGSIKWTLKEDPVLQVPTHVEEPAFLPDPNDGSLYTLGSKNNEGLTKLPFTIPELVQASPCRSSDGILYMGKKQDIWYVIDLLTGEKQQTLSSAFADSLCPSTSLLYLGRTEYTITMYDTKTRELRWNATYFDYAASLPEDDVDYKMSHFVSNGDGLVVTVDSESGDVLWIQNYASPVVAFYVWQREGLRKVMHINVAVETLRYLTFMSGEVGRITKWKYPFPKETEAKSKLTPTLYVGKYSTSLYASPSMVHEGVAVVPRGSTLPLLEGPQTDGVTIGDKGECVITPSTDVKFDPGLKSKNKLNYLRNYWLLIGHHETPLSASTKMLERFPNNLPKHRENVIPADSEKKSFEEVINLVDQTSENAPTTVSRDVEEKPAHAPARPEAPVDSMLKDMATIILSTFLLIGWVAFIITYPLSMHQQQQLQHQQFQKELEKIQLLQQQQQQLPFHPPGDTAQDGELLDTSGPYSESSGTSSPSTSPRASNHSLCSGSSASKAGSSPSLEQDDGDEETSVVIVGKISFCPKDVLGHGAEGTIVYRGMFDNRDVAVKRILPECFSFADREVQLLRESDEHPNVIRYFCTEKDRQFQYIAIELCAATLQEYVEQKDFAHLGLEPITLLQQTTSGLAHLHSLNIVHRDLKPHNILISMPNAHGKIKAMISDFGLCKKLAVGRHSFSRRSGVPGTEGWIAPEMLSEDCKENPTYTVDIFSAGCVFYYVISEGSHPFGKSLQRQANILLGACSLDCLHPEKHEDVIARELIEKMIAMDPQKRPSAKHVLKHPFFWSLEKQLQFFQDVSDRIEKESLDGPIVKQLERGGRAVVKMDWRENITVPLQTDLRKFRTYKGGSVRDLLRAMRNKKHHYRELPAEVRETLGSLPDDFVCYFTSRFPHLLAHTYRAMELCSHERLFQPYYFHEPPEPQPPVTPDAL

## CCN1CCN(Cc2ccc(NC(=O)Nc3cc(-c4ccc5ccncc5c4)n(C)n3)cc2C(F)(F)F)CC1 [Compound 35, 1-(4-((4-ethylpiperazin-1-yl)methyl)-3-(trifluoromethyl)phenyl)-3-(5-(isoquinolin-7-yl)-1-methyl-1H-pyrazol-3-yl)urea]
  EC50: ≤ 5 µM

## CN1CCN(Cc2ccc(NC(=O)Nc3cc(-c4ccc5ccncc5c4)n(C)n3)cc2C(F)(F)F)CC1 [Compound 24, 1-(5-(isoquinolin-7-yl)-1-methyl-1H-pyrazol-3-yl)-3-(4-((4-methylpiperazin-1-yl)methyl)-3-(trifluoromethyl)phenyl)urea]
  EC50: ≤ 5 µM

## CC(C)N1CCN(Cc2ccc(NC(=O)Nc3cc(-c4ccc5ccncc5c4)n(C)n3)cc2C(F)(F)F)CC1 [Compound 37, 1-(4-((4-isopropylpiperazin-1-yl)methyl)-3-(trifluoromethyl)phenyl)-3-(5-(isoquinolin-7-yl)-1-methyl-1H pyrazol-3-yl)urea]
  EC50: ≤ 5 µM

## Cn1nc(NC(=O)Nc2ccccc2)cc1-c1ccc2ccncc2c1 [Compound 64, 1-(5-(isoquinolin-7-yl)-1-methyl-1H-pyrazol-3-yl)-3-phenylurea]
  EC50: > 100 µM

## Cn1nc(NC(=O)Nc2ccccc2F)cc1-c1ccc2ccncc2c1 [Compound 69, 1-(2-fluorophenyl)-3-(5-(isoquinolin-7-yl)-1-methyl-1H-pyrazol-3-yl)urea]
  EC50: > 100 µM

## CN1CCC(Cc2ccc(NC(=O)Nc3cc(-c4ccc5cc(N)ncc5c4)n(C)n3)cc2C(F)(F)F)CC1 [Compound 48, 1-(5-(3-aminoisoquinolin-7-yl)-1-methyl-1H-pyrazol-3-yl)-3-(4-((1-methylpiperidin-4-yl)methyl)-3-(trifluoromethyl)phenyl)urea]
  EC50: 5 to 50 µM

## Cn1nc(NC(=O)NCc2ccccc2)cc1-c1ccc2ccncc2c1 [Compound 63, 1-benzyl-3-(5-(isoquinolin-7-yl)-1-methyl-1H-pyrazol-3-yl)urea]
  EC50: > 100 µM

## CN1CCN(Cc2ccc(NC(=O)Nc3cc(-c4cccn5ccnc45)n(C)n3)cc2C(F)(F)F)CC1 [Compound 5]
  EC50: > 100 µM

## CN1CCN(Cc2ccc(NC(=O)Nc3cc(-c4ccn5ccnc5c4)n(C)n3)cc2C(F)(F)F)CC1 [Compound 4, 1-(5-(imidazo[1,2-a]pyridin-7-yl)-1-methyl-1H-pyrazol-3-yl)-3-(4-((4-methylpiperazin-1-yl)methyl)-3-(trifluoromethyl)phenyl)urea]
  EC50: > 100 µM

## O=C(/C=C\c1ccccc1)Nc1ccc2oc(-c3cccnc3)nc2c1 [Compound 60, (Z)-3-phenyl-N-(2-(pyridin-3-yl)benzo[d]oxazol-5-yl)acrylamide]
  EC50: 5 to 50 µM

## Cn1nc(NC(=O)Nc2ccc(CN3CCC(c4ccccc4)CC3)c(C(F)(F)F)c2)cc1-c1ccc2ccncc2c1 [Compound 40, 1-(5-(isoquinolin-7-yl)-1-methyl-1H-pyrazol-3-yl)-3-(4-((4-phenylpiperidin-1-yl)methyl)-3-(trifluoromethyl)phenyl)urea]
  EC50: > 100 µM

## O=C(Nc1ccc(CN2CCNCC2)c(C(F)(F)F)c1)Nc1ccc2oc(-c3cccnc3)nc2c1 [Compound 13, 1-(4-(piperazin-1-ylmethyl)-3-(trifluoromethyl)phenyl)-3-(2-(pyridin-3-yl)benzo[d]oxazol-5-yl)urea]
  EC50: > 100 µM

## CN1CCN(Cc2ccc(Nc3c(Nc4cc(-c5ccc6nc(N)ncc6c5)n(C)n4)c(=O)c3=O)cc2C(F)(F)F)CC1 [Compound 75, 3-((5-(2-aminoquinazolin-6-yl)-1-methyl-1H-pyrazol-3-yl)amino)-4-((4-((4-methylpiperazin-1-yl)methyl)-3-(trifluoromethyl)phenyl)amino) cyclobut-3-ene-1,2-dione]
  EC50: ≤ 5 µM

## CN1CCN(Cc2ccc(NC(=O)Nc3cc(-c4cccc5nccnc45)n(C)n3)cc2C(F)(F)F)CC1 [Compound 6]
  EC50: > 100 µM

## CN1CCN(Cc2ccc(NC(=O)Nc3cc(-c4ccc(-c5ccc(N)nc5)cc4)[nH]n3)cc2C(F)(F)F)CC1 [Compound 55, 1-(5-(4-(6-aminopyridin-3-yl)phenyl)-1H-pyrazol-3-yl)-3-(4-((4-methylpiperazin-1-yl)methyl)-3-(trifluoromethyl)phenyl)urea]
  EC50: 5 to 50 µM

## CC1CCCCN1Cc1ccc(NC(=O)Nc2cc(-c3ccc4ccncc4c3)n(C)n2)cc1C(F)(F)F (centres unmarked) [Compound 43, 1-(5-(isoquinolin-7-yl)-1-methyl-1H-pyrazol-3-yl)-3-(4-((2-methylpiperidin-1-yl)methyl)-3-(trifluoromethyl)phenyl)urea]
  EC50: > 100 µM

## CN1CCN(Cc2ccc(NC(=O)Nc3cc(-c4ccc5ncnc(N)c5c4)n(C)n3)cc2C(F)(F)F)CC1 [Compound 28, 1-(5-(4-aminoquinazolin-6-yl)-1-methyl-1H-pyrazol-3-yl)-3-(4-((4-methylpiperazin-1-yl)methyl)-3-(trifluoromethyl)phenyl)urea]
  EC50: ≤ 5 µM

## Cn1nc(NS(=O)(=O)c2ccccc2)cc1-c1ccc2cc(N)ncc2c1 [Compound 66, N-(5-(3-aminoisoquinolin-7-yl)-1-methyl-1H-pyrazol-3-yl)benzenesulfonamide]
  EC50: > 100 µM

## CN1CCN(CCc2cccc(NC(=O)Nc3cc(-c4ccc5ccncc5c4)n(C)n3)c2)CC1 [Compound 19, 1-(5-(isoquinolin-7-yl)-1-methyl-1H-pyrazol-3-yl)-3-(3-(2-(4-methylpiperazin-1-yl)ethyl)phenyl)urea]
  EC50: > 100 µM

## CN1CCN(Cc2ccc(NC(=O)Nc3cc(-c4ccc5cnoc5c4)n(C)n3)cc2C(F)(F)F)CC1 [Compound 2, 1-(5-(benzo[d]isoxazol-6-yl)-1-methyl-1H-pyrazol-3-yl)-3-(4-((4-methylpiperazin-1-yl)methyl)-3-(trifluoromethyl)phenyl)urea]
  EC50: 5 to 50 µM

## CN1CCN(Cc2ccc(NC(=O)Cc3cc(-c4ccc5cc(N)ncc5c4)n(C)n3)cc2C(F)(F)F)CC1 [Compound 32, 2-(5-(3-aminoisoquinolin-7-yl)-1-methyl-1H-pyrazol-3-yl)-N-(4-((4-methylpiperazin-1-yl)methyl)-3-(trifluoromethyl)phenyl)acetamide]
  EC50: > 100 µM

## CN1CCN(Cc2ccc(NC(=O)Nc3cc(-c4cccnc4)[nH]n3)cc2C(F)(F)F)CC1 [Compound 7, 1-(4-((4-methylpiperazin-1-yl)methyl)-3-(trifluoromethyl)phenyl)-3-(5-(pyridin-3-yl)-1H-pyrazol-3-yl)urea]
  EC50: 5 to 50 µM

## CSc1ccccc1NC(=O)Nc1cc(-c2ccc3ccncc3c2)n(C)n1 [Compound 68, 1-(5-(isoquinolin-7-yl)-1-methyl-1H-pyrazol-3-yl)-3-(2-(methylthio)phenyl)urea]
  EC50: > 100 µM

## CN1CCN(Cc2ccc(C(=O)Nc3cc(-c4ccc5cc(N)ncc5c4)n(C)n3)c3ccccc23)CC1 [Compound 61, N-(5-(3-aminoisoquinolin-7-yl)-1-methyl-1H-pyrazol-3-yl)-4-((4-methylpiperazin-1-yl)methyl)-1-naphthamide]
  EC50: > 100 µM

## Cc1c(NC(=O)Nc2ccc(CN3CCN(C)CC3)c(C(F)(F)F)c2)ccc2oc(-c3cnn4ccccc34)nc12 [Compound 18, 1-(4-methyl-2-(pyrazolo[1,5-a]pyridin-3-yl)benzo[d]oxazol-5 yl)-3-(4-((4-methylpiperazin-1-yl)methyl)-3-(trifluoromethyl)phenyl)urea]
  EC50: > 100 µM

## CN1CCN(Cc2ccc(NC(=O)Nc3cc(-c4ccc5oncc5c4)n(C)n3)cc2C(F)(F)F)CC1 [Compound 3, 1-(5-(benzo[d]isoxazol-5-yl)-1-methyl-1H-pyrazol-3-yl)-3-(4-((4-methylpiperazin-1-yl)methyl)-3-(trifluoromethyl)phenyl)urea]
  EC50: > 100 µM

## O=C(C#Cc1ccccc1)Nc1ccc2oc(-c3cccnc3)nc2c1 [Compound 58, 3-phenyl-N-(2-(pyridin-3-yl)benzo[d]oxazol-5-yl)propiolamide]
  EC50: > 100 µM

## CN1CCN(Cc2ccc(NC(=O)Nc3cc(-c4ccc5ncncc5c4)n(C)n3)cc2C(F)(F)F)CC1 [Compound 22, 1-(1-methyl-5-(quinazolin-6-yl)-1H-pyrazo1-3-yl)-3-(4-((4-methylpiperazin-1-yl)methyl)-3-(trifluoromethyl)phenyl)urea]
  EC50: ≤ 5 µM

## CN1CCN(Cc2ccc(NC(=O)Nc3cc(-c4ccc5cc(N)ncc5c4)n(C)n3)cc2C(F)(F)F)CC1 [Compound 26, 1-(5-(3-aminoisoquinolin-7-yl)-1-methyl-1H-pyrazol-3-yl)-3-(4-((4-methylpiperazin-1-yl)methyl)-3-(trifluoromethyl)phenyl)urea]
  EC50: ≤ 5 µM

## Cc1cc2oc(-c3cnn4ccccc34)nc2cc1NC(=O)Nc1ccc(CN2CCN(C)CC2)c(C(F)(F)F)c1 [Compound 17, 1-(6-methyl-2-(pyrazolo[1,5-a]pyridin-3-yl)benzo[d]oxazol-5-yl)-3-(4-((4-methylpiperazin-1-yl)methyl)-3-(trifluoromethyl)phenyl)urea]
  EC50: > 100 µM

## Cn1nc(NC(=O)Nc2ccc(CN3CCOCC3)c(C(F)(F)F)c2)cc1-c1ccc2ccncc2c1 [Compound 39, 1-(5-(isoquinolin-7-yl)-1-methyl-1H-pyrazol-3-yl)-3-(4-(morpholinomethyl)-3-(trifluoromethyl)phenyl)urea]
  EC50: > 100 µM

## CN1CCN(Cc2ccc(NC(=O)Cc3cc(-c4ccc5ccncc5c4)n(C)n3)cc2C(F)(F)F)CC1 [Compound 31, 2-(5-(isoquinolin-7-yl)-1-methyl-1H-pyrazol-3-yl)-N-(4-((4-methylpiperazin-1-yl)methyl)-3-(trifluoromethyl)phenyl)acetamide]
  EC50: 5 to 50 µM
